Reference: the METLIN SMRT retention time set (Domingo-Almenara et al. 2019)

Assay: gradient 5% acetonitrile 3 min, to 50% in 2 min, to 85% in 15 min, held 3 min, 100 µL/min
Conditions: column: Zorbax Extend-C18 2.1 x 50 mm; eluents: water / acetonitrile, 0.1% formic acid
Outline: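 Values are retention times taken from adduct peaks that software picked and an analyst inspected. The pure standards were run as mixtures of ~100 molecules on HPLC linked to a quadrupole time-of-flight mass spectrometer, in positive and negative ionization mode. A Zorbax Extend-C18 column (2.1 × 50 mm, 1.8 μm) was used at 100 μL/min with water and acetonitrile, each including 0.1% formic acid.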

SMILES | RP-LC retention time [s]
COc1ccc(CC2C(=O)Nc3ccccc32)cc1Cl (stereo not given) | 832
COc1ccc(NC(=O)C2CCN(S(=O)(=O)c3cc4c(cc3C)NC(=O)CO4)CC2)cc1 | 754
O=C(CN1C[C@H]2C[C@H](C1)[C@H]1CCCC(=O)N1C2)NCC1CCCCC1 | 612
Cc1ccc(Oc2nccnc2N2CCCC(C(=O)N3CCN(c4cc(C)ccc4C)CC3)C2)cc1 (stereo not given) | 1400
COc1ccc(CNS(=O)(=O)c2cc3c(s2)CCN(C(=O)C2CC2)C3)cc1 | 812
Cc1cc2c(cc1S(=O)(=O)N1CCCC1C(=O)NCc1ccc(F)cc1)OCC(=O)N2 (stereo not given) | 712
N#Cc1cccc(-c2cn3c(n2)N(C(=O)c2ccco2)CCC3)c1 | 645
O=C(Cn1cccc1-c1nnc(C2CC2)o1)NCc1cccc(Br)c1 | 869
CC(C)C(=O)Nc1ccc(S(=O)(=O)NCC(c2ccsc2)N(C)C)cc1 (stereo not given) | 565
CCOc1ccc(-c2csc(Cc3nc(-c4ccc(Cl)cc4)no3)n2)cc1 | 1360
Cc1noc(-c2cccc(OC3CN(S(=O)(=O)c4c(C)nn(C)c4C)C3)c2)n1 | 850
CNC(=O)c1ccc(-n2c(C)ccc2C)nc1 | 697
Cc1ccc(NC(=O)N2CCC(OC3CCN(S(C)(=O)=O)CC3)CC2)c(C)c1 | 743
CC1CCCN(C(=O)c2ccc(-n3cccn3)nc2)C1 (stereo not given) | 825
CN1C(=O)C(CC(=O)NCc2ccccn2)Sc2ncccc21 (stereo not given) | 762
COc1ccc(C(=O)N2CCC3(CC2)NC(=O)c2cc(C)ccc2N3C)cc1OC | 711
COCc1cnc2c(c1SCc1cccc(F)c1)c(=O)n(C)c(=O)n2C | 960
CC(=O)N1CCc2cc(S(=O)(=O)C(C)CC(=O)N3CCN(c4cccc(C)c4C)CC3)ccc21 (stereo not given) | 935
Cc1ccc2c(Nc3ccc(F)c(Cl)c3)c(-c3nc(C)no3)cnc2n1 | 804

SMILES | RP-LC retention time [s]
O=C(c1ccc(F)c(F)c1)N1CCc2nc(-c3ccc(Cl)cc3)ncc2C1 | 1020
CC(Cc1ccco1)NC(=O)c1cccn(C)c1=O (stereo not given) | 649
CCOc1ccc(CNC(=O)C2=C3CCCN3c3ccc(F)cc3S2(=O)=O)cc1 | 892
CCc1ccc(NC(=O)c2cc(C(C)C)n3nccc3n2)cc1 | 1260
O=C1CCCCC(CNC(=O)C2(c3ccccc3)CC2)N1 (stereo not given) | 697
Cc1ccc(F)cc1NS(=O)(=O)c1cc2c(s1)CCN(C(=O)C1CC1)C2 | 839
Cc1ccc(C)c(S(=O)(=O)N2CCc3nc[nH]c3C2)c1 | 627
O=C(Cc1nnc2c(-c3nc(C4CC4)no3)cccn12)N1CCCCC1 | 616
Cc1nc2cc(-c3noc(Cc4cccc(Cl)c4)n3)ccc2o1 | 1070
Cc1ccc(NC(=O)N2CC(c3nc(C(C)C)nn3C)C2)cc1 | 689
CCOC(=O)c1noc2ncnc(Nc3cc(C)ccc3C)c12 | 1030
CCOC(=O)c1c(C)[nH]c(C(=O)N2CCCC(C(=O)N3CCOCC3)C2)c1C (stereo not given) | 672
CCn1c(C(=O)N2CCCC(C(=O)N3CCN(c4ccccc4)CC3)C2)cc2sccc21 (stereo not given) | 970
O=C(NCCC1=CCCCC1)C1CCN(C(=O)c2ncn3c2COC(c2ccc(F)cc2)C3)CC1 (stereo not given) | 849
CCCS(=O)(=O)c1ccc(NC2CCN(Cc3ccccc3)CC2)nn1 | 602
COC(=O)c1cnc2nc(C)ccc2c1Nc1cccc(Br)c1 | 718
CCCN(CCC)c1nc(-c2ccc(OC)cc2)nc2ccccc12 | 896
COc1ccccc1Oc1ccc(S(=O)(=O)N2CCCC2)cc1 | 914
CC(C)NC(=O)c1cn(-c2ccc(-c3nc(C(C)(C)C)no3)cn2)cn1 | 970

SMILES | RP-LC retention time [s]
CCCCNC(=O)C(=O)NCC(c1ccc2c(c1)OCO2)N1CCOCC1 (stereo not given) | 628
COc1cccc(CNC(=O)Cn2c(C)cc(-c3nnc(C4CCC4)o3)c2C)c1 | 834
O=C(NCCc1ccco1)C1CCCN(C(=O)c2cccn2-c2cccnc2)C1 (stereo not given) | 660
O=C(O)c1nnn(-c2cccc(Br)c2)c1C(F)(F)F | 836
CCn1ccc(C(=O)N2CCCn3nc(-c4cccs4)cc3C2)n1 | 748
CCS(=O)(=O)N1CCOc2ccc(NC(=O)COC)cc2C1 | 654
O=C(C1CCCN(c2ncnc3c2nc2n3CCCCC2)C1)N1CC=C(c2ccccc2)CC1 (stereo not given) | 922
CCOC(=O)c1nc(NC(CC)CN(C)Cc2ccccc2)c2c(C)noc2n1 (stereo not given) | 672
COCCc1noc([C@@H]2CC(F)(F)CN2C(=O)c2ocnc2C)n1 | 689
CCOC(=O)c1c(C)oc2ncnc(NCCN3CCN(c4ccc(OC)cc4)CC3)c12 | 716
Cc1oc(C2CCN(S(=O)(=O)c3cccc(C#N)c3)CC2)nc1C(=O)N(C)C | 751
CCn1ncn2cc(S(=O)(=O)Nc3ccc(C)cc3)cc2c1=O | 882
Cc1cc2c(=O)n(CC(=O)Nc3ccc(F)c(F)c3)ccc2s1 | 826
CN(C)CCn1nnc2cc(-c3noc(-c4ccc(C#N)cc4)n3)ccc21 | 643
O=C(Nc1nc2c(s1)CN(C(=O)c1cc(C3CC3)on1)CC2)c1ccco1 | 710
COc1ccc(CC(=O)N(C)C2CCN(c3nccnc3OC)C2)cc1 (stereo not given) | 684
CC1CCN(Cc2nc(-c3ccc(N4CCCC(C)C4)nc3)no2)CC1 (stereo not given) | 695
COc1ccccc1N1CCN(CC(=O)NC2CCSC2=O)C1=O (stereo not given) | 621

The remaining lines, values ahead:

RP-LC retention time [s] | SMILES
923 | CCS(=O)(=O)Nc1ccc(-c2noc(COc3ccccc3)n2)cc1
777 | Cc1ccc(C)c(NC(=O)c2cnn3c2CCCC3)c1
536 | O=C(NCCc1ccccc1)Nc1cnc2c(c1)CCC2
926 | COc1ccccc1-c1nc(C2CC(=O)N(c3ccc(F)cc3)C2)no1 (stereo not given)
666 | CN(C)CCCNc1oc(-c2ccccc2F)nc1S(=O)(=O)c1ccccc1
1120 | O=C(Nc1nc2c(s1)CCc1ccccc1-2)c1cccc(F)c1
611 | CCN(CCCNC(=O)C1CCN(c2ncnc3c2oc2ccccc23)CC1)c1ccccc1
913 | CCOC(=O)c1nc(Nc2ccccc2Cl)c2ccccc2n1
653 | COc1cccc(CNC(=O)Nc2c(-c3ccccc3)nc3ccccn23)c1
955 | Cc1ccc(NC(=O)c2ccccc2[N+](=O)[O-])c(C(=O)c2ccccc2)c1
896 | CC(C)N1C(=O)c2cccnc2Sc2cc(NC(=O)c3ccc(F)cc3)ccc21
629 | Cn1cc(-c2cc3n(n2)CCCN3C(=O)CCC(=O)NCc2ccccn2)c2ccccc21
702 | CN(C)C(=O)CN1C(=O)COc2ccc(C(=O)N3CCN(c4ccccc4)CC3)cc21
741 | COc1ccc(C(C)NC(=O)Cn2c(=O)n(-c3ccccc3)c3ncccc32)cc1OC (stereo not given)
831 | O=C1Nc2ccccc2SC1C(=O)N1CCC(C(=O)N2CC=C(c3ccccc3)CC2)CC1 (stereo not given)
831 | COc1ccc(CCNC(=O)CN2C(=O)CSc3cccn3-c3ccccc32)cc1OC
1240 | COC(=O)c1cnc(N2CCN(c3ccccc3F)CC2)c2ccccc12

RP-LC retention time [s] | SMILES
735 | CC(CN(CCS(=O)(=O)N1CCNCC1)C(=O)c1ccc(Br)cc1)c1ccccc1 (stereo not given)
800 | Cn1c(-c2ccccc2)c(C(=O)C(=O)N2CCOCC2)c2ccccc21
614 | Cc1nc(C)c(CCNC(=O)c2ccc(C)c([N+](=O)[O-])c2)s1
741 | COc1ccc(C(=O)N2CCc3ccc(C(=O)O)cc32)cc1
936 | C[C@@H]1CN(C(=O)c2ccco2)C[C@H]1c1nc(-c2ccccc2)no1
652 | NS(=O)(=O)c1ccc(CNC(=O)CCCn2cnc(-c3ccc(F)cc3)cc2=O)cc1
795 | CCN1C(=O)CCc2cc(NC(=O)Cc3ccccc3Cl)ccc21
951 | Cc1ccccc1NC(=O)C1CCN(S(=O)(=O)c2ccc3c(c2)sc(=O)n3C(C)C)CC1
983 | COC(=O)[C@@H]1Cc2c([nH]c3ccccc23)C(CCc2ccccc2)N1C(C)=O (stereo not given in full)
659 | O=C(NCCn1cnc(-c2ccccc2)cc1=O)c1ccc2nsnc2c1
882 | CC(C)C(NC(=O)c1cccc(CN2C(=O)C3CCCN3C(=O)c3ccccc32)c1)c1cccs1 (stereo not given)
1340 | CCc1cccc(NC(=O)c2cc3sccc3n2Cc2ccc(Cl)cc2)c1
1100 | Cc1ccc(-c2noc(C3CCCN3C(=O)CNC(=O)C(c3ccccc3)c3ccccc3)n2)cc1 (stereo not given)
878 | COC(=O)c1ccccc1NC(=O)Cn1c(=O)c(CCC(=O)NCC(C)C)nc2ccccc21
622 | CCc1cc(C(c2cccc(F)c2)N2CCN(C)CC2)c(NC(=O)c2ccccc2)s1 (stereo not given)
838 | Cc1ccc(CN2CCN(CC(=O)Nc3cc(C)cc(C)c3)C(=O)C2=O)cc1
1090 | O=C(Nc1ccc(OC(F)(F)F)cc1)C(=O)Nc1ccccc1[N+](=O)[O-]
